Reference: US20040014639A1, “Product and method for control of obesity” (priority 2000, published 2004)
Entries after “also recorded” stand apart in the source; their conditions may differ.

Experiments:
3T3-F442 cells = assay: in vitro lipolysis (glycerol release), 1 hour incubation; format: cell-based, mouse; details: for shape of lipolytic dose response: 1 hour, varying concentrations, agent alone
Procedure: Referring now to FIG. 1, 3T3-F442 cells (an immortal mouse adipocyte cell line) were incubated for 1 hour with varying concentrations of the rodent beta 3 agonist BRL 37344. […] In a third sample, AOD 9604 and BRL 37344 were co-administered with varying concentrations of AOD 9604, together with the maximal concentration of 1 μM of the BRL 37344.

adipocytes = assay: sensitisation of adipocytes to beta 3 agonist: 4 hour pre-incubation, then BRL 37344 for a further hour, lipolysis; format: cell-based, mouse; details: for lipolytic effect of the beta 3 agonist after pre-incubation: 4 hour pre-incubation at varying concentrations, then 50 nanomolar BRL 37344 for a further hour
Procedure: Referring now to FIG. 2, an experiment was performed to determine whether hGH (FIG. 2A) or AOD 9604 (FIG. 2B) sensitises the adipocytes to the actions of the beta 3 agonists. First, the adipocytes were incubated with hGH or AOD 9604 at varying concentrations for four hours. The cells were then further incubated with a half-maximal concentration of BRL 37344 of 50 nanomolar for a further hour.

[1] = biological target: beta 3 adrenergic receptor (Mus musculus, UniProt P25962); assay: agonism at the beta 3 adrenergic receptor
Sequence of beta 3 adrenergic receptor (P25962 whole entry): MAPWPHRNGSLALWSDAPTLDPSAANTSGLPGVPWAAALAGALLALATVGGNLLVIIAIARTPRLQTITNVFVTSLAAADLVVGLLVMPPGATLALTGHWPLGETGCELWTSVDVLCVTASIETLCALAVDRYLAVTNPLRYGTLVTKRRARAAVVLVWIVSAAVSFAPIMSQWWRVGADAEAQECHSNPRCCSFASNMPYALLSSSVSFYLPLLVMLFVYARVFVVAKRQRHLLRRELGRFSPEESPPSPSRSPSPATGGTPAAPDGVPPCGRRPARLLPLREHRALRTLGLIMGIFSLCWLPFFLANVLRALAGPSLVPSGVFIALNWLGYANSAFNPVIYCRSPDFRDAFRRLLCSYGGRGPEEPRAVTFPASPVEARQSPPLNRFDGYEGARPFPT

beta 3 messenger RNA [2] = assay: beta 3 messenger RNA expression in adipocytes after four-hour incubation (PCR/RT-PCR, normalised to β-actin); format: cell-based, mouse; details: 4 hour incubation
Procedure: Referring now to FIG. 3, the effect of the four-hour incubation of the adipocytes with hGH (FIG. 3A) or AOD 9604 (FIG. 3B) at two concentrations on expression of beta 3 messenger RNA was assessed using PCR/RT-PCR analysis of the content of beta 3 messenger RNA, using β-actin to normalise the data.

beta 3 messenger RNA [3] = assay: beta 3 messenger RNA expression after chronic treatment of ob/ob mice; format: in vivo; details: versus control ob/ob mice
ob/ob mice = assay: fat mass after chronic treatment of ob/ob mice; format: in vivo
From the text: It is believed that the obesity reducing effect of AOD9604 is at least in part a result of this sensitisation to the lipolytic affects of endogenous catecholamines (ie. epinephrine). Accordingly, chronic co-administration of AOD9604 and a beta 3 agonist will enhance the anti-obesity action of either agent administered alone.

C57Bl/6J (Ob/Ob) mouse = details: by injection; cited from earlier work

## C[C@H](Cc1ccc(OCC(=O)O)cc1)NC[C@H](O)c1cccc(Cl)c1 [BRL 37344]
3T3-F442 cells; 1 hour incubation
  concentration giving maximal lipolytic effect: 1 µM
3T3-F442 cells; 1 hour incubation, at 1 μM
  maximal effect, glycerol released: approximately 6 μM per milligram protein
3T3-F442 cells
  shape of lipolytic dose response: sigmoid-shaped dose response
adipocytes; adipocytes, read-out: half-maximal concentration (lipolysis)
  EC50: 50 nM

## Tyr-hGH 177-191 [AOD9604]
[1]
  agonist activity at the beta 3 adrenergic receptor: not an agonist
Beta 3 messenger RNA [2]
  expression of beta 3 messenger RNA: increase
Beta 3 messenger RNA [3]; 0.25 mg/kg/day for 14 days
  beta 3 messenger RNA in brown adipocytes: increase
  beta 3 messenger RNA in white adipocytes: increase
ob/ob mice
  fat mass of the treated animals: significant reduction
3T3-F442 cells
  shape of lipolytic dose response: bell-shaped acute lipolytic response
adipocytes
  lipolytic effect of the beta 3 agonist after pre-incubation: synergistic effect; also recorded: enhanced

## hGH 177-191: synthetic peptide corresponding to amino acid residues 177-191 of the human growth hormone sequence (LRIVQCRSVEGSCGF; UniProt P01241 203-217, looked up, fragment)
C57Bl/6J (Ob/Ob) mouse
  adipose tissue mass: reduce
  body weight gain: reduce

## hGH: human growth hormone
Beta 3 messenger RNA [3]; 1.0 mg/kg/day for 14 days
  beta 3 messenger RNA in brown adipocytes: increase
  beta 3 messenger RNA in white adipocytes: increase
adipocytes
  lipolytic effect of the beta 3 agonist after pre-incubation: synergistic effect; also recorded: enhanced
